Values quoted from earlier work in patent US20020198176A1, “Treatment of psoriasis with matrix metalloproteinase inhibitors” (priority 2000, published 2002).

System: MMP
Conditions: in vitro; read-out: IC50 (50% reduction of the MMP enzymatic activity in vitro)

## O=C(C[C@H](CSc1ccccc1)C(=O)O)c1ccc(-c2ccc(Cl)cc2)cc1 [BAY 12-9566]
  IC50: 2.2 to 60 µM
